# Measured values published in PubChem BioAssay (NCI).
#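 Cells were grown in 96-well plates and exposed to each compound for 48 hours at five concentrations; endpoints were interpolated linearly between bracketing concentrations, or set to the highest concentration if not reached. GI50 = concentration required for 50% inhibition of growth. TGI: concentration producing complete growth inhibition.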
# How the values were obtained:
# Assay in all cases: inhibition of tumour cell growth, NCI panel, 48 h
# SW-620 colon = tested on: SW-620 colon
# MDA-MB-231 breast = tested on: MDA-MB-231 breast
# OVCAR-5 ovarian = tested on: OVCAR-5 ovarian
# MCF7 breast = tested on: MCF7 breast
# HCC-2998 colon = tested on: HCC-2998 colon
# COLO 205 colon = tested on: COLO 205 colon
# SNB-19 CNS = tested on: SNB-19 CNS
# NCI-H522 lung = tested on: NCI-H522 lung
# SN12C renal = tested on: SN12C renal
# UACC-257 melanoma = tested on: UACC-257 melanoma
# HCT-15 colon = tested on: HCT-15 colon
# KM12 colon = tested on: KM12 colon
# CCRF-CEM leukemia = tested on: CCRF-CEM leukemia
# T-47D breast = tested on: T-47D breast
# HS 578T breast = tested on: HS 578T breast
# SK-OV-3 ovarian = tested on: SK-OV-3 ovarian
# OVCAR-8 ovarian = tested on: OVCAR-8 ovarian
# SF-539 CNS = tested on: SF-539 CNS
# HCT-116 colon = tested on: HCT-116 colon
# BT-549 breast = tested on: BT-549 breast
# CAKI-1 renal = tested on: CAKI-1 renal
# SNB-75 CNS = tested on: SNB-75 CNS
# UACC-62 melanoma = tested on: UACC-62 melanoma
# DU-145 prostate = tested on: DU-145 prostate
# HOP-92 NSCLC = tested on: HOP-92 NSCLC
# MOLT-4 leukemia = tested on: MOLT-4 leukemia
# 786-0 renal = tested on: 786-0 renal
# OVCAR-4 ovarian = tested on: OVCAR-4 ovarian
# LOX IMVI melanoma = tested on: LOX IMVI melanoma
# SK-MEL-28 melanoma = tested on: SK-MEL-28 melanoma
# MDA-MB-468 breast = tested on: MDA-MB-468 breast
# OVCAR-3 ovarian = tested on: OVCAR-3 ovarian
# MALME-3M melanoma = tested on: MALME-3M melanoma
# HT29 colon = tested on: HT29 colon
# RXF 393 renal = tested on: RXF 393 renal
# RPMI-8226 leukemia = tested on: RPMI-8226 leukemia
# PC-3 prostate = tested on: PC-3 prostate
# UO-31 renal = tested on: UO-31 renal
# SF-295 CNS = tested on: SF-295 CNS
# K-562 leukemia = tested on: K-562 leukemia
# A549 NSCLC = tested on: A549 NSCLC
# HOP-62 NSCLC = tested on: HOP-62 NSCLC
# IGROV1 ovarian = tested on: IGROV1 ovarian
# M14 melanoma = tested on: M14 melanoma
# NCI-H23 lung = tested on: NCI-H23 lung
# U251 CNS = tested on: U251 CNS
# EKVX NSCLC = tested on: EKVX NSCLC
# ACHN renal = tested on: ACHN renal
# SK-MEL-2 melanoma = tested on: SK-MEL-2 melanoma
# NCI-H226 lung = tested on: NCI-H226 lung
# MDA-MB-435 = tested on: MDA-MB-435
# NCI/ADR-RES ovarian = tested on: NCI/ADR-RES ovarian
# SK-MEL-5 melanoma = tested on: SK-MEL-5 melanoma
# HL-60(TB) leukemia = tested on: HL-60(TB) leukemia
# SR leukemia = tested on: SR leukemia
# NCI-H460 lung = tested on: NCI-H460 lung
# SF-268 CNS = tested on: SF-268 CNS
# TK-10 renal = tested on: TK-10 renal
# A498 renal = tested on: A498 renal
smiles,measurement,setting,value
c1ccc(CSc2nnc(-c3ccc4nc(-c5ccccc5)[nH]c4c3)o2)cc1,GI50,SW-620 colon,17.8 µM
same,TGI,SW-620 colon,40.3 µM
same,GI50,MDA-MB-231 breast,16.8 µM
same,TGI,MDA-MB-231 breast,34.7 µM
same,GI50,OVCAR-5 ovarian,24.1 µM
same,TGI,OVCAR-5 ovarian,97.7 µM
same,GI50,MCF7 breast,11.1 µM
same,TGI,MCF7 breast,26.4 µM
same,GI50,HCC-2998 colon,34.8 µM
same,TGI,HCC-2998 colon,> 100 µM
same,GI50,COLO 205 colon,32.6 µM
same,TGI,COLO 205 colon,> 100 µM
same,GI50,SNB-19 CNS,14.3 µM
same,TGI,SNB-19 CNS,30 µM
same,GI50,NCI-H522 lung,12.1 µM
same,TGI,NCI-H522 lung,39 µM
same,GI50,SN12C renal,12.1 µM
same,TGI,SN12C renal,25.7 µM
same,GI50,UACC-257 melanoma,23.6 µM
same,TGI,UACC-257 melanoma,85.2 µM
same,GI50,HCT-15 colon,8.29 µM
same,TGI,HCT-15 colon,28.8 µM
same,GI50,KM12 colon,29.4 µM
same,TGI,KM12 colon,> 100 µM
same,GI50,CCRF-CEM leukemia,8.83 µM
same,TGI,CCRF-CEM leukemia,> 100 µM
same,GI50,T-47D breast,3.6 µM
same,TGI,T-47D breast,19.1 µM
same,GI50,HS 578T breast,18.8 µM
same,TGI,HS 578T breast,57.2 µM
same,GI50,SK-OV-3 ovarian,18.7 µM
same,TGI,SK-OV-3 ovarian,48.5 µM
same,GI50,OVCAR-8 ovarian,14.6 µM
same,TGI,OVCAR-8 ovarian,30.4 µM
same,GI50,SF-539 CNS,11.3 µM
same,TGI,SF-539 CNS,23.4 µM
same,GI50,HCT-116 colon,11.9 µM
same,TGI,HCT-116 colon,25.7 µM
same,GI50,BT-549 breast,12.8 µM
same,TGI,BT-549 breast,30.2 µM
same,GI50,CAKI-1 renal,10.5 µM
same,TGI,CAKI-1 renal,22.2 µM
same,GI50,SNB-75 CNS,10.8 µM
same,TGI,SNB-75 CNS,24.8 µM
same,GI50,UACC-62 melanoma,13.8 µM
same,TGI,UACC-62 melanoma,31.4 µM
same,GI50,DU-145 prostate,16.2 µM
same,TGI,DU-145 prostate,37 µM
same,GI50,HOP-92 NSCLC,13.3 µM
same,TGI,HOP-92 NSCLC,39.9 µM
same,GI50,MOLT-4 leukemia,5.75 µM
same,TGI,MOLT-4 leukemia,> 100 µM
same,GI50,786-0 renal,8.83 µM
same,TGI,786-0 renal,22.9 µM
same,GI50,OVCAR-4 ovarian,11.1 µM
same,TGI,OVCAR-4 ovarian,23.3 µM
same,GI50,LOX IMVI melanoma,15.8 µM
same,TGI,LOX IMVI melanoma,34 µM
same,GI50,SK-MEL-28 melanoma,14.7 µM
same,TGI,SK-MEL-28 melanoma,33 µM
same,GI50,MDA-MB-468 breast,7.57 µM
same,TGI,MDA-MB-468 breast,27.7 µM
same,GI50,OVCAR-3 ovarian,15.9 µM
same,TGI,OVCAR-3 ovarian,33.6 µM
same,GI50,MALME-3M melanoma,12.5 µM
same,TGI,MALME-3M melanoma,28.3 µM
same,GI50,HT29 colon,6.24 µM
same,TGI,HT29 colon,> 100 µM
same,GI50,RXF 393 renal,4.77 µM
same,TGI,RXF 393 renal,22.6 µM
same,GI50,RPMI-8226 leukemia,7.03 µM
same,TGI,RPMI-8226 leukemia,> 100 µM
same,GI50,PC-3 prostate,11.3 µM
same,TGI,PC-3 prostate,32.3 µM
same,GI50,UO-31 renal,11.3 µM
same,TGI,UO-31 renal,23.7 µM
same,GI50,SF-295 CNS,10.4 µM
same,TGI,SF-295 CNS,24 µM
same,GI50,K-562 leukemia,8.05 µM
same,TGI,K-562 leukemia,> 100 µM
same,GI50,A549 NSCLC,12 µM
same,TGI,A549 NSCLC,28.7 µM
same,GI50,HOP-62 NSCLC,20.2 µM
same,TGI,HOP-62 NSCLC,44.8 µM
same,GI50,IGROV1 ovarian,20.4 µM
same,TGI,IGROV1 ovarian,46 µM
same,GI50,M14 melanoma,14.6 µM
same,TGI,M14 melanoma,36.5 µM
same,GI50,NCI-H23 lung,22.9 µM
same,TGI,NCI-H23 lung,73.5 µM
same,GI50,U251 CNS,13.8 µM
same,TGI,U251 CNS,29.8 µM
same,GI50,EKVX NSCLC,14.5 µM
same,TGI,EKVX NSCLC,> 100 µM
same,GI50,ACHN renal,14.3 µM
same,TGI,ACHN renal,28 µM
same,GI50,SK-MEL-2 melanoma,17 µM
same,TGI,SK-MEL-2 melanoma,64.1 µM
same,GI50,NCI-H226 lung,12.6 µM
same,TGI,NCI-H226 lung,37.4 µM
same,GI50,MDA-MB-435,12 µM
same,TGI,MDA-MB-435,28.3 µM
same,GI50,NCI/ADR-RES ovarian,11.1 µM
same,TGI,NCI/ADR-RES ovarian,37.3 µM
same,GI50,SK-MEL-5 melanoma,7.25 µM
same,TGI,SK-MEL-5 melanoma,> 100 µM
same,GI50,HL-60(TB) leukemia,24.2 µM
same,TGI,HL-60(TB) leukemia,> 100 µM
same,GI50,SR leukemia,22.4 µM
same,TGI,SR leukemia,> 100 µM
same,GI50,NCI-H460 lung,12.3 µM
same,TGI,NCI-H460 lung,27.5 µM
same,GI50,SF-268 CNS,14.1 µM
same,TGI,SF-268 CNS,38.8 µM
same,GI50,TK-10 renal,14.8 µM
same,TGI,TK-10 renal,29.7 µM
same,GI50,A498 renal,12.4 µM
same,TGI,A498 renal,25.4 µM
